The numbers were not newly measured in patent US9447074B2, “Compounds” (Glaxo Group Limited, priority 2011, dated 2016), which cites them from elsewhere.

Each structure is given as a SMILES string.

Series [1] concerns B-Cell non-Hodgkin's lymphoma (NHL).
Series [2] relates to allergic rhinitis. The settings on record: dosed intranasally, phase I/II.
Series [3] has as its system allergic rhinitis. The settings on record: phase II.
The test system of another series is B lymphoma (BKS-2). Particulars: murine model of B lymphoma (BKS-2).

On to `COc1cc(Nc2ncc(F)c(Nc3ccc4c(n3)N(COP(=O)(O)O)C(=O)C(C)(C)O4)n2)cc(OC)c1OC` [Example R788, fostamatinib disodium], for which the therapeutic benefit entry in series [1] (patients with DLBCL and CLL/SLL) is on record as “therapeutic benefit”. Also, in series [1] (patients with relapsed or refractory B-Cell NHL), the tolerability result is reported as “well-tolerated”.

For the compound `Oc1cccc(Nc2ncc(F)c(Nc3cccc(O)c3)n2)c1` [Example R112], in the series on allergic rhinitis [2], the PGD2 entry was “statistically significant decrease” and the clinical safety entry is listed as “safe across a range of indicators”. Further, the efficacy versus placebo result in the series with allergic rhinitis [3] is reported as “lack of efficacy versus placebo”.

As for `COc1cc(/C=C/C(=O)CC(=O)/C=C/c2ccc(O)c(OC)c2)ccc1O` [curcumin], in the series with B lymphoma (BKS-2), the “tumour burden as measured by the total splenocyte number” value was “significant reduction of tumour burden”.
